Molecules are shown by their SMILES. Read-outs that look alike come from different tables or passages of the source. Starred links: 1 amine or outer side, 2 acyl side, 3 side chain; linkers in the order of their positions; H or OH if unused. Non-standard residues stand in square brackets, D forms with d. Residues, ends and D or L forms follow the SMILES beside them. Groups on a side chain read outwards from the residue. *: point of attachment. C18 diacid = O=C(O)CCCCCCCCCCCCCCCCC(=O)*; γGlu = O=C(O)[C@H](CCC(=O)[*:2])N[*:1]; AEEA = NCCOCCOCC(=O)O; Aib = CC(C)(N)C(=O)O

The experiment addresses T1, human CRF2α receptor (Homo sapiens, UniProt Q13324).
T1 construct: expressed in transfected cells; host or cells: TeloHEAC
T1 sequence (Q13324 1-411): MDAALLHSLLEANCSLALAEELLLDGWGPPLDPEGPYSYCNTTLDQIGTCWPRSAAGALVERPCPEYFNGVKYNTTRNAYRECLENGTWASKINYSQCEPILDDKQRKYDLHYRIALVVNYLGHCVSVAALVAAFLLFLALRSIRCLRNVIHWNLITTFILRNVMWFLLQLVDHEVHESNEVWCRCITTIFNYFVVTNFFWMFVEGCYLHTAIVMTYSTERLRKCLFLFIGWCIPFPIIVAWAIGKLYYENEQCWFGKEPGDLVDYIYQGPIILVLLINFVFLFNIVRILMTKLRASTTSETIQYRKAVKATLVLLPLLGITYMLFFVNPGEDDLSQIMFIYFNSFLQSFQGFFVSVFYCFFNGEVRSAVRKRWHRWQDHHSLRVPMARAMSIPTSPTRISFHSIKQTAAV
The experiment in a line: cAMP agonism at human CRF2 α receptor in TeloHEAC cells (Example 7). The experiment is classed as cell-based. The conditions noted are these: cAMP HTRF, TeloHEAC cells stably expressing human CRF2 α. The method in brief: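 Steps: thaw and wash cells; suspend in 1×HBSS, 20 mM HEPES, 0 or 0.1% HSA, 2 mM IBMX; add compound, 30 min RT; lyse with HTRF reagents, 1 h; read 665/620 nm. EC50 calculated, E% versus 1000 nM UCN2.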

Setting [1] is: 0% HSA, read-out: EC50 [nM], 0% HSA.
[2] abbreviates: 0.1% HSA, read-out: EC50 [nM], 0.1% HSA.

Usually EC50 stands for the concentration at which the effect is half-maximal. Consider `CC[C@H](C)[C@H](N)C(=O)N[C@H](C(=O)N[C@@H](CC(C)C)C(=O)N[C@@H](CO)C(=O)N[C@@H](CC(C)C)C(=O)N[C@@H](CC(=O)O)C(=O)N[C@H](C(=O)N1CCC[C@H]1C(=O)N[C@H](C(=O)N[C@@H](CCCCN)C(=O)N[C@@H](CC(C)C)C(=O)N[C@@H](CCCCNC(=O)COCCOCCNC(=O)COCCOCCNC(=O)CC[C@H](NC(=O)CCCCCCCCCCCCCCCCC(=O)O)C(=O)O)C(=O)N[C@@H](CCC(N)=O)C(=O)N[C@@H](CCCCN)C(=O)N[C@@H](CC(C)C)C(=O)N[C@@H](CC(C)C)C(=O)N[C@@H](CCCCN)C(=O)N[C@@H](CCC(N)=O)C(=O)N[C@@H](CCC(=O)O)C(=O)N[C@@H](CCCNC(=N)N)C(=O)N[C@@H](CCC(N)=O)C(=O)N[C@@H](CCCCN)C(=O)N[C@@H](CCCCN)C(=O)NC(C)(C)C(=O)N[C@@H](CCCNC(=N)N)C(=O)N[C@@H](CCC(=O)O)C(=O)N[C@@H](CCC(N)=O)C(=O)N[C@@H](C)C(=O)N[C@@H](CCC(=O)O)C(=O)N[C@H](C(=O)N[C@@H](CC(N)=O)C(=O)N[C@@H](CCCCN)C(=O)N[C@@H](CCC(N)=O)C(=O)N[C@H](C(=O)N[C@@H](CC(C)C)C(=O)N[C@@H](C)C(=O)N[C@@H](CCC(N)=O)C(=O)N[C@H](C(N)=O)C(C)C)[C@@H](C)CC)[C@@H](C)O)[C@@H](C)CC)C(C)C)C(C)C` [compound 98] (H-IVLSLDVPIKLK([AEEA-AEEA-γGlu-C18 diacid])QKLLKQERQKK[Aib]REQAETNKQILAQV-NH2; N-terminus assumed), for which the concentration for a half-maximal effect (EC50) under setting [1] was 2.36 nM.
Take `CC[C@H](C)[C@H](N)C(=O)N[C@H](C(=O)N[C@@H](CC(C)C)C(=O)N[C@@H](CO)C(=O)N[C@@H](CC(C)C)C(=O)N[C@@H](CC(=O)O)C(=O)N[C@H](C(=O)N1CCC[C@H]1C(=O)N[C@H](C(=O)N[C@@H](CCCCN)C(=O)N[C@@H](CC(C)C)C(=O)N[C@@H](CCCCNC(=O)COCCOCCNC(=O)COCCOCCNC(=O)CC[C@H](NC(=O)CCCCCCCCCCCCCCCCC(=O)O)C(=O)O)C(=O)N[C@@H](CCC(N)=O)C(=O)N[C@H](C(=O)N[C@@H](CC(C)C)C(=O)N[C@@H](CC(C)C)C(=O)N[C@@H](CCCCN)C(=O)N[C@@H](CCC(N)=O)C(=O)N[C@@H](CCC(=O)O)C(=O)N[C@@H](CCCNC(=N)N)C(=O)N[C@@H](CCC(N)=O)C(=O)N[C@@H](CCCCN)C(=O)NC(C)(C)C(=O)N[C@@H](CCC(N)=O)C(=O)N[C@@H](CCCNC(=N)N)C(=O)N[C@@H](CCC(=O)O)C(=O)N[C@@H](CCC(N)=O)C(=O)N[C@@H](C)C(=O)N[C@@H](CCC(=O)O)C(=O)N[C@H](C(=O)N[C@@H](CC(N)=O)C(=O)N[C@@H](CCCCN)C(=O)N[C@@H](CCC(N)=O)C(=O)N[C@H](C(=O)N[C@@H](CC(C)C)C(=O)N[C@@H](CCC(=O)O)C(=O)N[C@@H](CCCNC(=N)N)C(=O)N[C@H](C(N)=O)C(C)C)[C@@H](C)CC)[C@@H](C)O)[C@@H](C)CC)[C@@H](C)CC)C(C)C)C(C)C` [compound 107] (H-IVLSLDVPIKLK([AEEA-AEEA-γGlu-C18 diacid])QILLKQERQK[Aib]QREQAETNKQILERV-NH2): the EC50 reads like this: under setting [1], 0.81 nM; under setting [2], 16.1 nM.
Turning to `CC[C@H](C)[C@H](N)C(=O)N[C@H](C(=O)N[C@@H](CC(C)C)C(=O)N[C@@H](CO)C(=O)N[C@@H](CC(C)C)C(=O)N[C@@H](CC(=O)O)C(=O)N[C@H](C(=O)N1CCC[C@H]1C(=O)N[C@H](C(=O)N[C@@H](CCCCN)C(=O)N[C@@H](CC(C)C)C(=O)N[C@@H](CCCCNC(=O)COCCOCCNC(=O)COCCOCCNC(=O)CC[C@H](NC(=O)CCCCCCCCCCCCCCCCC(=O)O)C(=O)O)C(=O)N[C@@H](CCC(N)=O)C(=O)N[C@H](C(=O)N[C@@H](CC(C)C)C(=O)N[C@@H](CC(C)C)C(=O)N[C@@H](CCCCN)C(=O)N[C@@H](CCC(N)=O)C(=O)N[C@@H](CCC(=O)O)C(=O)N[C@@H](CCCNC(=N)N)C(=O)N[C@@H](CCC(N)=O)C(=O)N[C@@H](CCCCN)C(=O)NC(C)(C)C(=O)N[C@@H](CCC(N)=O)C(=O)N[C@@H](CCCNC(=N)N)C(=O)N[C@@H](CCC(=O)O)C(=O)N[C@@H](CCC(N)=O)C(=O)N[C@@H](C)C(=O)N[C@@H](CCC(=O)O)C(=O)N[C@@H](CCCCN)C(=O)N[C@@H](CC(N)=O)C(=O)N[C@@H](CCCCN)C(=O)N[C@@H](CCC(N)=O)C(=O)N[C@H](C(=O)N[C@@H](CC(C)C)C(=O)N[C@@H](CCC(=O)O)C(=O)N[C@@H](CCCNC(=N)N)C(=O)N[C@H](C(N)=O)C(C)C)[C@@H](C)CC)[C@@H](C)CC)[C@@H](C)CC)C(C)C)C(C)C` [compound 115] (H-IVLSLDVPIKLK([AEEA-AEEA-γGlu-C18 diacid])QILLKQERQK[Aib]QREQAEKNKQILERV-NH2; N-terminus assumed), the 50% effective concentration (EC50) under setting [1] is 2.77 nM.
`CC[C@H](C)[C@H](N)C(=O)N[C@H](C(=O)N[C@@H](CC(C)C)C(=O)N[C@@H](CO)C(=O)N[C@@H](CC(C)C)C(=O)N[C@@H](CC(=O)O)C(=O)N[C@H](C(=O)N1CCC[C@H]1C(=O)N[C@H](C(=O)N[C@@H](CCCCN)C(=O)N[C@@H](CC(C)C)C(=O)N[C@@H](CCCCNC(=O)COCCOCCNC(=O)COCCOCCNC(=O)CC[C@H](NC(=O)CCCCCCCCCCCCCCCCC(=O)O)C(=O)O)C(=O)N[C@@H](CCC(N)=O)C(=O)N[C@H](C(=O)N[C@@H](CC(C)C)C(=O)N[C@@H](CC(C)C)C(=O)N[C@@H](CCCCN)C(=O)N[C@@H](CCC(N)=O)C(=O)N[C@@H](CCC(=O)O)C(=O)N[C@@H](CCCNC(=N)N)C(=O)N[C@@H](CCC(N)=O)C(=O)N[C@@H](CCCCN)C(=O)N[C@@H](CCCCN)C(=O)N[C@@H](CCC(N)=O)C(=O)N[C@@H](CCCNC(=N)N)C(=O)N[C@@H](CCC(=O)O)C(=O)N[C@@H](CCC(N)=O)C(=O)N[C@@H](C)C(=O)N[C@@H](CCC(=O)O)C(=O)N[C@@H](CCCCN)C(=O)N[C@@H](CC(N)=O)C(=O)N[C@@H](CCCCN)C(=O)N[C@@H](CCC(N)=O)C(=O)N[C@H](C(=O)N[C@@H](CC(C)C)C(=O)N[C@@H](CCC(=O)O)C(=O)N[C@@H](CCC(N)=O)C(=O)N[C@H](C(N)=O)C(C)C)[C@@H](C)CC)[C@@H](C)CC)[C@@H](C)CC)C(C)C)C(C)C` [compound 120] (H-IVLSLDVPIKLK([AEEA-AEEA-γGlu-C18 diacid])QILLKQERQKKQREQAEKNKQILEQV-NH2): the EC50 under setting [1] is 1.27 nM and the half-maximal effective concentration (EC50) under setting [2] was found to be 61.1 nM.

Values taken from patent US12679878B2, “CRF2 receptor agonists and their use in therapy” (SANOFI, priority 2020, dated 2026).
